Test results reported in PMC9283466, “In silico identification of two peptides with antibacterial activity against multidrug-resistant Staphylococcus aureus” (NPJ Biofilms and Microbiomes, 2022).
Converted amounts (≈) assume the structure as drawn. Bridge positions count the residues as written; N and C are the ends. Peptide text beside a SMILES is read from it.

Legend:
[1] = tested on: E. coli K12; test: microbe, parasite or virus in culture; format: cell-based, Escherichia coli; conditions: K12
Description: (§1) To determine the antimicrobial activity of the new antimicrobial peptides, HG2 and HG4, their minimum inhibitory concentrations (MICs) were determined by broth microdilution method[51] in cation adjusted Mueller Hinton broth (MHB) following the International Organisation for Standardisation (ISO) 20776-1 standard for MIC testing using a final bacterial inoculum of 5 × 10^5 CFU/ml[52]. […] The peptides dissolved in sterile distilled water were added to bacteria culture and incubated overnight at appropriate conditions. The MICs of the peptides and comparator antibiotics were recorded after 18–24 h. The minimum bactericidal concentrations (MBCs) were also determined and were taken as the lowest concentration of the antimicrobial that prevented the growth of bacterial cells after the subculture of cells (from MIC treatment) onto antibiotic-free media.

[2] = tested on: MRSA USA300 cells; test: Serial passage / resistance assay; format: cell-based, Staphylococcus aureus; conditions: for fold increase in MIC during serial passage: sub-MIC exposure over 20 days, MRSA USA300; for resistant mutants after serial passage: sub-lethal doses over a period of 20 days
Description: In vitro evaluation of the potential for MRSA USA3000 cells to develop resistance to HG2 and HG4 was performed as follows. […] Cultures from the highest concentration that supported growth were diluted 1: 1000 in MHB and used to provide the inoculum for the next passage day. This process was performed for a total duration of 20 days. Any putative mutants recovered were isolated via streak dilution for three generations on MHA, prior to further characterisation.

[3] = tested on: B. cereus; test: microbe, parasite or virus in culture; format: cell-based, Bacillus cereus
Description: as §1

[4] = Peptide-lipid interaction and insertion, lipid monolayer; format: binding, human; conditions: Erythrocyte extract; initial surface pressure 30+/-0.5 mN/m
Description: Peptide–lipid interaction was measured using a lipid monolayer formed at the air:water interface with total lipid extracts and pure lipids. Total lipids were extracted from overnight cultures of MRSA or human erythrocytes using the Folch extraction procedure[14],[40]. Extracted total lipids were dried, re-solubilised in chloroform:methanol (2:1, v/v) and stored at −20 °C under nitrogen. […] The variation of the surface pressure caused by peptide insertion was then continuously monitored using a fully automated microtensiometer (µTROUGH SX, Kibron Inc, Finland) until it reached equilibrium (maximal surface pressure increase is usually obtained after 15–25 min). […] In other experiments, the critical pressure of insertion of HG2 or HG4 in the total lipid extracts and pure lipids was measured as follows[14],[56]. Briefly, in these experiments, the initial pressure of the lipid monolayer was set up at different values (between 10 and 30 mN/m) and the variation of pressure caused by the injection of the peptide was measured. […] All experiments were carried out in a controlled atmosphere at 20 ± 1 °C and data were analyzed using the Firmware 2.5 programme (Kibron Inc.). The accuracy of the system under our experimental conditions was determined to be ±0.25 mN/m for surface pressure measurements.

Q: For `CC[C@H](C)[C@H](NC(=O)[C@H](CC(C)C)NC(=O)[C@H](CC(C)C)NC(=O)[C@H](CC(C)C)NC(=O)[C@H](CCCCN)NC(=O)[C@H](CCCCN)NC(=O)[C@@H](N)CCSC)C(=O)N[C@@H](CC(C)C)C(=O)N[C@@H](Cc1ccccc1)C(=O)N[C@H]1CSSC[C@@H](C(=O)N[C@@H](CCCCN)C(=O)N[C@@H](CCCCN)C(=O)N[C@@H](C)C(=O)N2CCC[C@H]2C(N)=O)NC(=O)CNC(=O)[C@H](C)NC(=O)[C@H](CC(C)C)NC(=O)[C@H](C)NC(=O)[C@H](CC(C)C)NC(=O)[C@H](C)NC(=O)[C@H](CC(C)C)NC1=O` [HG2] (H-MKKLLLILFCLALALAGCKKAP-NH2; disulfide 10-18; N-terminus assumed), which MIC [1] is on record?
A: 256 µg/mL (≈ 109 µM)

Q: What about the “fold increase in MIC during serial passage” value [2] of the same compound?
A: 1–2 fold

Q: What about the “resistant mutants after serial passage” value [2] of the same compound?
A: did not produce resistant mutants

Q: And the MIC [3]?
A: 256 µg/mL (≈ 109 µM)

Q: And the Speed of insertion [4]?
A: 1.13 mN/m/10 sec

Q: With `CC[C@H](C)[C@H](NC(=O)[C@H](CC(C)C)NC(=O)[C@H](CC(C)C)NC(=O)[C@H](C)NC(=O)CNC(=O)CNC(=O)[C@@H](NC(=O)[C@@H](NC(=O)[C@H](CC(C)C)NC(=O)[C@H](C)NC(=O)[C@H](CC(C)C)NC(=O)CNC(=O)[C@H](CC(C)C)NC(=O)[C@@H](N)C(C)C)[C@@H](C)CC)C(C)C)C(=O)N[C@@H](CCCCN)C(=O)N[C@@H](CCCCN)C(=O)N[C@@H](CCCCN)C(=O)N[C@@H](CCC(N)=O)C(=O)N[C@@H](C)C(=O)N[C@@H](CCCCN)C(=O)N[C@@H](CO)C(N)=O` [HG4] (H-VLGLALIVGGALLIKKKQAKS-NH2; N-terminus and C-terminus assumed) as the compound, how does the MIC [1] read?
A: 512 µg/mL (≈ 242 µM)

Q: And the “fold increase in MIC during serial passage” value [2]?
A: 1–2 fold

Q: What about the “resistant mutants after serial passage” value [2] of the same compound?
A: did not produce resistant mutants

Q: What about the MIC [3] of the same compound?
A: 512 µg/mL (≈ 242 µM)

Q: And the Speed of insertion [4]?
A: 1.20 mN/m/10 sec
